{"source": "patent US20090053237A1", "about": "“USE OF PENICILLIN-BINDING PROTEINS OR POLYNUCLEOTIDES OR ANTIBODIES THEREOF FOR PREVENTING OR TREATING BACTERIAL INFECTIONS” (priority 2005, published 2009)", "format_in_all_cases": "cell-based", "key": {"[1]": {"tested_on": "Neisseria meningitidis strain LNP17723", "experiment": "MIC of penicillin G, strain LNP17723", "settings": "strain LNP17723, serogroup C", "source_text": "(§1) Features of all Neisseria meningitidis strains for which a recombinant Neisseria meningitidis PBP2 fragment lacking the N-terminal transmembrane domain was produced are listed in following Table 3."}, "[2]": {"tested_on": "Neisseria meningitidis strain LNP16454", "experiment": "MIC of penicillin G, strain LNP16454", "settings": "strain LNP16454, serogroup C", "source_text": "as §1"}, "[3]": {"tested_on": "Neisseria meningitidis strain TR 16504", "experiment": "MIC of penicillin G, strain TR 16504", "settings": "strain TR 16504, serogroup C", "source_text": "as §1"}, "[4]": {"tested_on": "Neisseria meningitidis strain LNP16504", "experiment": "MIC of penicillin G, strain LNP16504", "settings": "strain LNP16504, serogroup B", "source_text": "as §1"}, "[5]": {"tested_on": "Neisseria meningitidis strain LNP17041", "experiment": "MIC of penicillin G, strain LNP17041", "settings": "strain LNP17041, serogroup B", "source_text": "as §1"}, "[6]": {"tested_on": "Neisseria meningitidis strain TR 16454", "experiment": "MIC of penicillin G, strain TR 16454", "settings": "strain TR 16454, serogroup C", "source_text": "as §1"}, "[7]": {"tested_on": "Neisseria meningitidis strain TR TH-41", "experiment": "MIC of penicillin G, strain TR TH-41", "settings": "strain TR TH-41, serogroup C", "source_text": "as §1"}, "[8]": {"tested_on": "Neisseria meningitidis strain LNP8013", "experiment": "MIC of penicillin G, strain LNP8013", "settings": "strain LNP8013, serogroup C", "source_text": "as §1"}}, "data": [{"smiles": "CC1(C)S[C@@H]2[C@H](NC(=O)Cc3ccccc3)C(=O)N2[C@H]1C(=O)O", "note": "[Penicillin G]", "values": [{"measurement": "MIC Penicillin G", "setting": "[1]", "value": 0.75, "unit": "µg/mL"}, {"measurement": "MIC Penicillin G", "setting": "[2]", "value": 1, "unit": "µg/mL"}, {"measurement": "MIC Penicillin G", "setting": "[3]", "value": 0.38, "unit": "µg/mL"}, {"measurement": "MIC Penicillin G", "setting": "[4]", "value": 0.25, "unit": "µg/mL"}, {"measurement": "MIC Penicillin G", "setting": "[5]", "value": 0.5, "unit": "µg/mL"}, {"measurement": "MIC Penicillin G", "setting": "[6]", "value": 0.5, "unit": "µg/mL"}, {"measurement": "MIC Penicillin G", "setting": "[7]", "value": 0.5, "unit": "µg/mL"}, {"measurement": "MIC Penicillin G", "setting": "[8]", "value": 0.094, "unit": "µg/mL"}]}]}
